Results taken from PMC6776084 (ChemMedChem, 2009).
pEC50: −log10 of the molar value. Like-named read-outs stand apart in the source and are kept apart here.

Key:
[1] = system: HIV-1 based vector containing wild-type (wt) HIV-1 RT; type: cell-based; settings: for pEC50: read-out: EC50(HOS-313), HOS-313 cells (HSV-1 TK), 48 h, wt HIV-1 RT vector
HOS-313 cells = type: cell-based, human; settings: read-out: CC50(HOS-313), absence of virus, ATP level
[2] = system: HIV-1 based vector containing wild-type (wt) HIV-1 RT; settings: for pEC50: read-out: EC50(HOS), HOS cells, 48 h, wt HIV-1 RT vector
[3] = system: cellular thymidine kinase (TK); settings: cited from earlier work
HIV = settings: qualitative; cited from earlier work

## Cc1cn([C@@]23C=C[C@@H](CO)[C@@H]2C3)c(=O)[nH]c1=O [Compound 6a, 1-((1′S, 4′R, 5′S)-4-(Hydroxymethyl)bicyclo[3.1.0]hex-2-en-1-yl)-5-methylpyrimidine-2,4(1H,3H)-dione]
HIV-1
  Anti-HIV activity: inactive

## Nc1ncnc2c1ncn2[C@H]1C=C[C@]2(CO)C[C@H]12 [Compound 4c, ((1′R, 4′S, 5′S)-4-(6-Amino-9H-purin-9-yl)bicyclo[3.1.0]hex-2-en-1-yl)methanol]
[1]
  pEC50: 4.95
HOS-313 cells
  CC50: 246 µM
[2]
  Selectivity index (cytotoxicity versus infectivity), HOS cells: 25 fold
  pEC50: 4.78
HOS cells; read-out: CC50(HOS), HOS cells, absence of virus, ATP level
  CC50: 423 µM
HIV-1
  Anti-HIV activity: active

## Cc1cn([C@H]2C[C@H](N=[N+]=[N-])[C@@H](CO)O2)c(=O)[nH]c1=O [AZT]
[3]; qualitative
  Affinity for cellular thymidine kinase (TK): equivalent to that of thymidine itself

## Nc1ccn([C@@]23C=C[C@@H](CO)[C@@H]2C3)c(=O)n1 [Compound 6d, 4-Amino-1-((1′S, 4′R, 5′S)-4-(hydroxymethyl)bicyclo[3.1.0]hex-2-en-1-yl)pyrimidin-2(1H)-one]
[1]
  Selectivity index, HOS-313 cells: 130
  pEC50: 5.52
[2]
  Selectivity index (cytotoxicity versus infectivity), HOS cells: 15.8
  pEC50: 4.57
HIV-1
  Anti-HIV activity: +/− active

## Nc1ncnc2c1ncn2[C@@]12C=C[C@@H](CO)[C@@H]1C2 [Compound 6c, ((1′S, 2′R, 5′S)-5-(6-Amino-9H-purin-9-yl)bicyclo[3.1.0]hex-3-en-2-yl)methanol]
HIV-1
  Anti-HIV activity: inactive

## Nc1nc2c(ncn2[C@@]23C=C[C@@H](CO)[C@@H]2C3)c(=O)[nH]1 [Compound 6b, 2-Amino-9-((1′S, 4′R, 5′S)-4-(hydroxymethyl)bicyclo[3.1.0]hex-2-en-1-yl)-1H-purin-6(9H)-one]
HIV-1
  Anti-HIV activity: inactive

## Cc1cn([C@H]2C[C@H](O)[C@]3(CO)C[C@H]23)c(=O)[nH]c1=O [Compound 3a, North-methanocarbathymidine]
HIV
  Anti-HIV activity: inactive

## Nc1ccn([C@H]2C=C[C@]3(CO)C[C@H]23)c(=O)n1 [Compound 4d, 4-Amino-1-((1′S, 2′S, 5′R)-5-(hydroxymethyl)bicyclo[3.1.0]hex-3-en-2-yl)pyrimidin-2(1H)-one]
HOS cells
  Cytotoxicity (qualitative): relatively non-toxic
HIV-1
  Anti-HIV activity: inactive

## Cc1cn([C@H]2C=C[C@@H](CO)O2)c(=O)[nH]c1=O [Compound D4T, stavudine]
[3]
  Phosphorylation by cellular thymidine kinase (TK), less efficient than for AZT: 500 fold
